# From patent US20240309038A1, “NOVEL GALACTOSIDE INHIBITOR OF GALECTINS” (GALECTO BIOTECH AB, priority 2020, published 2024)
# Molecular target: Gal-3 (Homo sapiens, UniProt P17931)
# Test: Fluorescence anisotropy assay, inhibition of galectin / fluorescein tagged saccharide probe interaction
# Type: binding
# Description: The affinity of Example 1-59 for galectins were determined by a fluorescence anisotropy assay where the compound was used as an inhibitor of the interaction between galectin and a fluorescein tagged saccharide probe as described Sörme, P., Kahl-Knutsson, B., Huflejt, M., Nilsson, U. J., and Leffler H. (2004) Fluorescence polarization as an analytical tool to evaluate galectin-ligand interactions. Anal. Biochem. 334: 36-47, (Sarme et al., 2004)
# Gal-3, sequence (P17931 whole entry, species assumed): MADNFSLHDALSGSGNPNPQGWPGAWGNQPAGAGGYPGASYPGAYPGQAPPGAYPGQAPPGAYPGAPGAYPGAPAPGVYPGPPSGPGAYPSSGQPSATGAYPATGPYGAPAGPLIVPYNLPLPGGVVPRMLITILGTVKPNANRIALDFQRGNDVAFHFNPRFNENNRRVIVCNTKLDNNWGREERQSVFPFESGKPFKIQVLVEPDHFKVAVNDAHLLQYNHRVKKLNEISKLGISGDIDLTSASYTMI
row,Kd [nM],SMILES
1,35,"Cc1nc([C@@H]2OC(CO)[C@H](O)C(n3cc(-c4cc(F)c(F)c(F)c4)cn3)C2O)n(-c2cnc3nc(C)sc3c2)n1 (stereo in doubt) [Example 45, 6-{5-{3-Deoxy-3-[4-(3,4,5-trifluorophenyl)-1H-1,2-pyrazol-1-yl]-β-D-galactopyranosyl}-3-methyl-1H-1,2,4-triazol-1-yl}-2-methylthiazolo[4,5-b]pyridine]"
2,24,"Cc1nc([C@@H]2OC(CO)[C@H](O)C(n3cc(-c4cc(F)c(Cl)cn4)cn3)C2O)n(-c2cc(Cl)ccc2C(F)(F)F)n1 (stereo in doubt) [Example 14, 1-{5-{3-[4-(5-Chloro-4-fluoropyridin-2-yl)-1H-1,2-pyrazol-1-yl]-3-deoxy-β-D-galactopyranosyl}-3-methyl-1H-1,2,4-triazol-1-yl}-5-chloro-2-(trifluoromethyl)benzene]"
3,92,"Cc1nc([C@@H]2OC(CO)[C@H](O)C(n3cc(-c4cc(F)c(F)c(F)c4)c(-c4ccccc4C)n3)C2O)n(-c2cc(Cl)ccc2C(F)(F)F)n1 (stereo in doubt) [Example 53, 5-Chloro-1-{5-{3-deoxy-3-[4-(3,4,5-trifluorophenyl)-3-(2-methylphenyl)-1H-1,2-pyrazol-1-yl]-β-D-galactopyranosyl}-3-methyl-1H-1,2,4-triazol-1-yl}-2-(trifluoromethyl)benzene]"
4,11,"Cc1nc([C@@H]2OC(CO)[C@H](O)C(n3cc(-c4ccc(C)c(F)c4)cn3)C2O)n(-c2cc(Cl)ccc2C(F)(F)F)n1 (stereo in doubt) [Example 57, 5-Chloro-1-{5-{3-deoxy-3-[4-(3-fluoro-4-methylphenyl)-1H-1,2-pyrazol-1-yl]-β-D-galactopyranosyl}-3-methyl-1H-1,2,4-triazol-1-yl}-2-(trifluoromethyl)benzene]"
5,15,"Cc1nc([C@@H]2OC(CO)[C@H](O)C(n3cc(-c4cc(F)c(Cl)c(F)c4)cn3)C2O)n(-c2cc(Cl)cnc2C(F)(F)F)n1 (stereo in doubt) [Example 28, 3-{5-{3-[4-(4-Chloro-3,5-difluorophenyl)-1H-1,2-pyrazol-1-yl]-3-deoxy-β-D-galactopyranosyl}-3-methyl-1H-1,2,4-triazol-1-yl}-5-chloro-2-(trifluoromethyl)pyridine]"
6,100,"Cc1nc([C@@H]2OC(CO)[C@H](O)C(n3cc(-c4cc(F)c(F)c(F)c4)c(-c4ccc(F)cc4)n3)C2O)n(-c2cc(Cl)ccc2C(F)(F)F)n1 (stereo in doubt) [Example 55, 5-Chloro-1-{5-{3-deoxy-3-[4-(3,4,5-trifluorophenyl)-3-(4-fluorophenyl)-1H-1,2-pyrazol-1-yl]-β-D-galactopyranosyl}-3-methyl-1H-1,2,4-triazol-1-yl}-2-(trifluoromethyl)benzene]"
7,25,"Cc1nc([C@@H]2OC(CO)[C@H](O)C(n3cc(-c4cc(F)c(F)c(F)c4)cn3)C2O)n(-c2cncc(Br)c2)n1 (stereo in doubt) [Example 19, 5-Bromo-3-{5-{3-deoxy-3-[4-(3,4,5-trifluorophenyl)-1H-1,2-pyrazol-1-yl]-β-D-galactopyranosyl}-3-methyl-1H-1,2,4-triazol-1-yl}pyridine]"
8,110,"Cc1nc([C@@H]2OC(CO)[C@H](O)C(n3cc(-c4ccc(C(F)(F)F)cc4)cn3)C2O)n(-c2cc(Cl)ccc2C(F)(F)F)n1 (stereo in doubt) [Example 56, 5-Chloro-1-{5-{3-deoxy-3-{4-[4-(trifluoromethyl)phenyl]-1H-1,2-pyrazol-1-yl}-β-D-galactopyranosyl}-3-methyl-1H-1,2,4-triazol-1-yl}-2-(trifluoromethyl)benzene]"
9,11,"Cc1nc([C@@H]2OC(CO)[C@H](O)C(n3cc(-c4cc(F)c(Cl)c(F)c4)c(C)n3)C2O)n(-c2cc(Cl)ccc2C(F)(F)F)n1 (stereo in doubt) [Example 12, 1-{5-{3-[4-(4-Chloro-3,5-difluorophenyl)-3-methyl-1H-1,2-pyrazol-1-yl]-3-deoxy-β-D-galactopyranosyl}-3-methyl-1H-1,2,4-triazol-1-yl}-5-chloro-2-(trifluoromethyl)benzene]"
10,240,"Cc1nc([C@@H]2OC(CO)[C@H](O)C(n3cc(-c4cc(F)c(F)c(F)c4)cn3)[C@@H]2O)n(-c2cnc(C#N)c(Cl)c2)n1 (stereo partly drawn) [Example 23, 3-Chloro-2-cyano-5-{5-{3-deoxy-3-[4-(3,4,5-trifluorophenyl)-1H-1,2-pyrazol-1-yl]-β-D-galactopyranosyl}-3-methyl-1H-1,2,4-triazol-1-yl}pyridine]"
11,28,"CCOC(=O)c1nn(C2C(O)[C@H](c3nc(C)nn3-c3cc(Cl)ccc3C(F)(F)F)OC(CO)[C@@H]2O)cc1-c1cc(F)c(Cl)c(F)c1 (stereo in doubt) [Example 29, 1-{5-{3-[4-(4-Chloro-3,5-difluorophenyl)-3-ethoxycarbonyl-1H-1,2-pyrazol-1-yl]-3-deoxy-β-D-galactopyranosyl}-3-methyl-1H-1,2,4-triazol-1-yl}-5-chloro-2-(trifluoromethyl)benzene]"
12,10,"Cc1nc([C@@H]2OC(CO)[C@H](O)C(n3cc(-c4cc(F)c(F)c(F)c4)cn3)C2O)n(-c2cc(Cl)c3nc(C)sc3c2)n1 (stereo in doubt) [Example 41, 4-Chloro-6-{5-{3-deoxy-3-[4-(3,4,5-trifluorophenyl)-1H-1,2-pyrazol-1-yl]-β-D-galactopyranosyl}-3-methyl-1H-1,2,4-triazol-1-yl}-2-methylbenzothiazole]"
13,6,"Cc1nc([C@@H]2OC(CO)[C@H](O)C(n3cc(-c4cc(F)c(Cl)c(F)c4)c(C(=O)O)n3)C2O)n(-c2cc(Cl)ccc2C(F)(F)F)n1 (stereo in doubt) [Example 30, 1-{5-{3-[3-Carboxy-4-(4-chloro-3,5-difluorophenyl)-1H-1,2-pyrazol-1-yl]-3-deoxy-β-D-galactopyranosyl}-3-methyl-1H-1,2,4-triazol-1-yl}-5-chloro-2-(trifluoromethyl)benzene]"
14,520,"Cc1nc([C@@H]2OC(CO)[C@H](O)C(n3cc(-c4cc(F)c(F)c(F)c4)cn3)C2O)n(-c2ncc(Cl)s2)n1 (stereo in doubt) [Example 33, 5-Chloro-2-{5-{3-deoxy-3-[4-(3,4,5-trifluorophenyl)-1H-1,2-pyrazol-1-yl]-β-D-galactopyranosyl}-3-methyl-1H-1,2,4-triazol-1-yl}-thiazole]"
15,33,"Cc1nc([C@@H]2OC(CO)[C@H](O)C(n3cc(-c4cc(F)c(F)c(F)c4)cn3)C2O)n(-c2cc(Br)cnc2C#N)n1 (stereo in doubt) [Example 22, 5-Bromo-2-cyano-3-{5-{3-deoxy-3-[4-(3,4,5-trifluorophenyl)-1H-1,2-pyrazol-1-yl]-β-D-galactopyranosyl}-3-methyl-1H-1,2,4-triazol-1-yl}pyridine]"
16,20,"COc1ccccc1-c1nn(C2C(O)[C@H](c3nc(C)nn3-c3cc(Cl)ccc3C(F)(F)F)OC(CO)[C@@H]2O)cc1-c1cc(F)c(F)c(F)c1 (stereo in doubt) [Example 52, 5-Chloro-1-{5-{3-deoxy-3-[4-(3,4,5-trifluorophenyl)-3-(2-methoxyphenyl)-1H-1,2-pyrazol-1-yl]-β-D-galactopyranosyl}-3-methyl-1H-1,2,4-triazol-1-yl}-2-(trifluoromethyl)benzene]"
17,210,"Cc1nc([C@@H]2OC(CO)[C@H](O)C(n3cc(-c4cc(F)c(F)c(F)c4)cn3)C2O)n(-c2ccc3nc(C)sc3c2F)n1 (stereo in doubt) [Example 38, 6-{5-{3-Deoxy-3-[4-(3,4,5-trifluorophenyl)-1H-1,2-pyrazol-1-yl]-β-D-galactopyranosyl}-3-methyl-1H-1,2,4-triazol-1-yl}-7-fluoro-2-methylbenzothiazole]"
18,16,"Cc1nc([C@@H]2OC(CO)[C@H](O)C(n3cc(-c4cc(F)c(F)c(F)c4)cn3)C2O)n(-c2cc3sc(C)nc3cc2F)n1 (stereo in doubt) [Example 37, 6-{5-{3-Deoxy-3-[4-(3,4,5-trifluorophenyl)-1H-1,2-pyrazol-1-yl]-β-D-galactopyranosyl}-3-methyl-1H-1,2,4-triazol-1-yl}-5-fluoro-2-methylbenzothiazole]"
19,230,"Cc1nc([C@@H]2OC(CO)[C@H](O)C(n3cc(-c4cc(F)c(F)c(F)c4)cn3)C2O)n(-c2ccc3nc(C(F)(F)F)sc3c2)n1 (stereo in doubt) [Example 36, 6-{5-{3-Deoxy-3-[4-(3,4,5-trifluorophenyl)-1H-1,2-pyrazol-1-yl]-β-D-galactopyranosyl}-3-methyl-1H-1,2,4-triazol-1-yl}-2-(trifluoromethyl)benzothiazole]"
20,11,"Cc1nc([C@@H]2OC(CO)[C@H](O)C(n3cc(-c4cc(F)c(F)c(F)c4)cn3)C2O)n(-c2cc3sc(C)nc3cc2Br)n1 (stereo in doubt) [Example 43, 5-Bromo-6-{5-{3-deoxy-3-[4-(3,4,5-trifluorophenyl)-1H-1,2-pyrazol-1-yl]-β-D-galactopyranosyl}-3-methyl-1H-1,2,4-triazol-1-yl}-2-methylbenzothiazole]"
21,10,"Cc1nc([C@@H]2OC(CO)[C@H](O)C(n3cc(-c4cc(F)c(F)c(F)c4)cn3)C2O)n(-c2cc(F)c3nc(C)sc3c2)n1 (stereo in doubt) [Example 39, 6-{5-{3-Deoxy-3-[4-(3,4,5-trifluorophenyl)-1H-1,2-pyrazol-1-yl]-β-D-galactopyranosyl}-3-methyl-1H-1,2,4-triazol-1-yl}-4-fluoro-2-methylbenzothiazole]"
22,200,"Cc1nc([C@@H]2OC(CO)[C@H](O)C(n3cc(-c4cc(F)c(F)c(F)c4)cn3)C2O)n(-c2cc(-c3cc(F)c(F)c(F)c3)ccc2C(F)(F)F)n1 (stereo in doubt) [Example 4, 1-{5-{3-Deoxy-3-[4-(3,4,5-trifluorophenyl)-1H-1,2-pyrazol-1-yl]-β-D-galactopyranosyl}-3-methyl-1H-1,2,4-triazol-1-yl}-2-(trifluoromethyl)-2-(3,4,5-trifluorophenyl)benzene]"
